# In patent US20190029987A1, “DIMETHYL FUMARATE (DMF) FOR PREVENTION OR TREATMENT OF GOUT, ACNE, DIABETES, VITILIGO AND/OR PYODERMA GANGRENOSUM” (UNIVERSITAT ZURICH, priority 2016, published 2019):
# Peptide text beside a SMILES is read from it. * marks the point of attachment. Cbz = O=C(OCc1ccccc1)*
# Legend:
# Nrf2 [1] = assay: Nigericin-induced Nrf2 degradation in THP-1 cells (Western blot); type: cell-based, human; settings: THP-1, nigericin 5 μM, 1 μM added after 1 h, harvested after 2.5 h, FIG. 4I
# From the text: Next, the inventors investigated the activity of Nrf2 upon activation of the NLRP3 inflammasome, since inflammasome activation is ROS-dependent. […] This is surprising, since UVB irradiation is a strong inducer of ROS production and it can be anticipated that the cells would benefit from Nrf2 activation. UVB-induced secretion by HPKs requires expression of NLRP1 and NLRP3 [21]. Both nigericin and MSU crystals are considered as “true” NLRP3 activators, but HPKs cannot phagocytose MSU crystals. Therefore, the inventors treated HPKs with nigericin only and THP-1 cells with either of these NLRP3 activators. […] Therefore, NLRP3 inflammasome activation most likely induces Nrf2 protein degradation. […]
# (A-C) HPKs were irradiated with (A) UVB or treated with (B) nigericin (5 μM) and cells and supernatants were harvested at different time points as indicated. […] (C) Expression of Nrf2 and Nrf2 target genes was determined by qRT-PCR. […] Cells and supernatants were harvested at different time points as indicated and analysed for (D) expression and activation of the proteins as indicated by Western blot and (E) expression of Nrf2 and Nrf2 target genes by qRT-PCR. […] Cells were harvested after 1 h or 5 h, and lysates were analysed for the expression of the indicated proteins by Western blot. […] (G) Nrf2 expression related to the indicated background band was quantified from the Western blot. […]
# Nrf2 [2] = assay: UVB-induced Nrf2 degradation in HPKs (Western blot); type: cell-based, human; settings: 1 μM for 10 min, harvested after 1 h, FIG. 7D
# From the text: Next, the inventors investigated the activity of Nrf2 upon activation of the NLRP3 inflammasome, since inflammasome activation is ROS-dependent. […] This is surprising, since UVB irradiation is a strong inducer of ROS production and it can be anticipated that the cells would benefit from Nrf2 activation. UVB-induced secretion by HPKs requires expression of NLRP1 and NLRP3 [21]. Both nigericin and MSU crystals are considered as “true” NLRP3 activators, but HPKs cannot phagocytose MSU crystals. Therefore, the inventors treated HPKs with nigericin only and THP-1 cells with either of these NLRP3 activators. […] Therefore, NLRP3 inflammasome activation most likely induces Nrf2 protein degradation. […] However, inflammasome activation-induced Nrf2 degradation was blocked upon ablation of ASC or NLRP3 expression (FIG. 4G) and upon treatment of cells with the ROS blocker PDTC or the Ca2+ chelator BAPTA-AM (Supplementary FIG. 2D). […] However, inflammasome function was not impaired, as reflected by normal processing of pro-IL-18 (FIG. 4H). Although Keap1 expression is partially dispensable for Nrf2 degradation by inflammasome activation, the transcription factor is directed to the proteasome under these conditions, since Nrf2 degradation was inhibited by the proteasome inhibitor MG132 (FIG. 4I and FIG. 7D).
# FIG. 7: (A-C) HPKs were transfected with siRNAs for 3 d as indicated. Scrambled (scr) siRNA and siRNA targeting the unrelated vascular endothelial growth factor (VEGF) served as controls. Western blots of (A) total lysates or (B) nuclear and cytoplasmic lysates and (C) qRT-PCR for expression of target gene expression. (D) HPKs were treated with MG132 (1 μM), PDTC (500 μM) or BAPTA-AM (12.5 μM) for 10 min and harvested (before UV) or irradiated with UVB and harvested after 1 h. Western blots showing expression of Nrf2. (E) Differentiated and primed THP-1 cells were pretreated with cycloheximide (CHX, 30 μg/ml) for 1 h before priming cells with upLPS overnight. Western blots show expression of the indicated proteins. […] Statistics: (C) Mann-Whitney test, related to scr control. *P≤0.05
smiles,measurement,setting,value
CC(C)C[C@@H](C=O)NC(=O)[C@H](CC(C)C)NC(=O)[C@H](CC(C)C)NC(=O)OCc1ccccc1 [MG132] (Cbz-Leu-Leu-Leu-aldehyde),inflammasome activation-induced Nrf2 degradation,Nrf2 [1],inhibited
same,inflammasome activation-induced Nrf2 degradation,Nrf2 [2],inhibited
